Experimental data reported in patent publication US20250122295A1, “METHOD OF TREATMENT OF PHILADELPHIA CHROMOSOME POSITIVE LEUKEMIA” (CSL LIMITED, priority 2014, published 2025).

Test system: GM-CSF-induced STAT5 phosphorylation in KU812 cells
Conditions: dasatinib alone 100 nM, GM-CSF 4 ng/ml for 10 minutes, FIG. 6
Description: KU812 cells (a myeloid precursor cell line established from the peripheral blood of a patient in blast crisis of CML) were cultured with 100 nM dasatinib with or without Bion-1 (100 nM) and constitutively stimulated with GM-CSF (4 ng/ml) for 10 minutes.

In the case of `Cc1nc(Nc2ncc(C(=O)Nc3c(C)cccc3Cl)s2)cc(N2CCN(CCO)CC2)n1` [dasatinib], the “inhibition of p-STAT5 phosphorylation in the presence of GM-CSF” value is reported as “does not inhibit”.
